Laboratory results reported in patent US9163018B2, “Method of treatment of age-related macular degeneration (AMD)” (Prana Biotechnology Limited, priority 2006, dated 2015).

Experiments:
Aβ 1-42 = biological target: T1, Aβ 1-42 (Homo sapiens, UniProt P05067); assay: Fluorometric H2O2 assay (inhibition of Abeta H2O2 production); format: biochemical; details: concentration required to inhibit 50% of Abeta H2O2 production; read-out: H2O2 IC50
T1 construct: The reaction solutions contained Aβ 1-42 at concentrations
T1 sequence (P05067 672-713 limits assumed): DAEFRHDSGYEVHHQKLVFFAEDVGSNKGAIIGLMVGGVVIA
How it was run: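 Copper-dependent Aβ H2O2 production measured fluorometrically with deacetylated dichlorofluorescein plus HRP in PBS, pH 7.4. Incubation 60 min at 37 C, test compound included in wells. H2O2 quantified against H2O2 standards.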

[1] = Mice plasma concentration after oral dose; format: in vivo; details: 30 min to 4 h after single or repeat oral dose of 30 mg/kg
[2] = tested on: primary cortical neuronal cultured cells; assay: Test compound cytotoxicity, MTS assay, primary cortical neuronal cultures; format: cell-based, mouse; details: for Cytotox (% viable) Neuronal cells at 1 μM: 1 μM test compound; for Cytotox (% viable) Neuronal cells at 10 μM: 10 μM test compound
How it was run: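 Primary cortical neurons were cultured five days in Neurobasal/B27, then exposed on day six to compounds (from 2.5 mM DMSO stocks) in medium minus antioxidants, in triplicate for 4 days at 37° C. Viability was measured by MTS, 2 h at 37° C, absorbance at 560 nm.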

[3] = biological target: T2, Abeta:Zn (25:50 μM) Synthetic Aggregations (Homo sapiens, UniProt P05067); assay: Disaggregation of Abeta:Zn synthetic aggregates (ThT fluorescence); format: biochemical; details: for Disaggregation % Aggregate reduction at 5 μM: 5 μM test compound; for EC50: Abeta:Zn 25:50 μM aggregates
T2 construct: PB Compound Mediated Dissolution of Aggregated Abeta 1-42; purchased Keck Laboratory, Yale University School of Medicine
T2 sequence (P05067 672-713 limits assumed): as above
How it was run: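 Abeta1-42 (25 μM) with ZnCl2 (50 μM) and ThT (50 μM) in PBS pH 6.6 was preaggregated 24 h at 37 degrees with rotation. Aggregates were then exposed to compound (final 1-50 μM, DMSO) for 2 h at 37 degrees. ThT fluorescence was read at ex 450/em 480 nm.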

[4] = Toxicity, visual observations in mice; details: 30 mg/kg; duration and visual observations
Aβ deposits = details: daily oral gavage 30 mg/kg, 9 weeks, 13-14 months old transgenic mice
[5] = tested on: M17 human neuroblastoma cells; assay: Cytotoxicity, M17 human neuroblastoma cells; format: cell-based; details: for Cytotox (% viable) M17 cells at 1 μM: 1 μM test compound; for Cytotox (% viable) M17 cells at 10 μM: 10 μM test compound
Procedure: Assay 3. MTS Assay for Cell Viability
Cell viability is determined using the MTS assay. Culture medium is replaced with fresh neurobasal medium plus B27 supplements minus antioxidants. 1/10th volume MTS solution (Cell Titre 96 Aqueous One, Promega Corporation) and incubated at 37° C., 2 hrs. 200 microliter aliquots are measured with a spectrophotometer at 560 nm.

[6] = tested on: dityrosine oligomerization; assay: CuTy: inhibition of dityrosine oligomerization; format: biochemical; details: referenced to in-house standard (set as 100% inhibition)
[7] = tested on: Abeta in extract of post-mortem human AD brain tissue; assay: BAS: human brain amyloid solubilization assay; format: biochemical; details: max effect across the concentration range, referenced to baseline PBS
How it was run: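 Plaque-bearing post-mortem AD cortex homogenised in ice-cold PBS pH 7.4; soluble Aβ in 100,000×g supernatant, insoluble Aβ from resuspended pellet. Fractions run on Tris-Tricine SDS-PAGE, immunoblotted with W02, densitometry against synthetic Aβ40 standards.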

SMILES | IC50 (Aβ 1-42) | Mice plasma concentration [1] | Cytotox (% viable) Neuronal cells at 1 μM [2] | Cytotox (% viable) Neuronal cells at 10 μM [2] | Disaggregation % Aggregate reduction at 5 μM [3] | EC50 [3] | Toxicity at 30 mg/kg [4] | Tg Mice % difference from control in Amyloid plaque abundance (Aβ deposits) | Tg Mice % difference from control in insoluble brain amyloid burden (Aβ deposits) | Tg Mice % difference from control in soluble brain amyloid burden (Aβ deposits) | Cytotox (% viable) M17 cells at 1 μM [5] | Cytotox (% viable) M17 cells at 10 μM [5] | CuTy % inhibition of dityrosine oligomerization [6] | BAS max effect [7]
Oc1c(C2CC2)ncc2cccnc12 [PB 1073] | 520 nM | Up to 350 ng/ mL in mice ng/mL | 100% | 98% | 50% | 4700 nM | 6 days, none | – | – | – | – | – | – | –
O=c1c2c(Cl)cc(Cl)c(O)c2ncn1CCN1CCCC1 [PB 1075] | – | Up to 520 ng/ mL in mice ng/mL | 104% | 91% | 0% | > 20000 nM | 14 days, 1 of 4 death | −23% | Increase | decrease | 103.6% | 101.3% | – | –
O=c1c2c(Cl)cc(Cl)c(O)c2ncn1Cc1cccc(Cn2cnc3c(O)c(Cl)cc(Cl)c3c2=O)n1 [PB 1101] | 4100 nM | – | 89% | 67% | 45% | – | 10 days, none | – | – | – | 94.9% | 26.8% | 10% inhibition | –
O=c1c2c(Cl)cc(Cl)c(O)c2ncn1Nc1ccc(F)cc1F [PB-1100] | – | Up to 1,130.6 ng/mL | 100% | 92% | 42% | – | 10 days, none | – | – | – | 108.1% | 80.5% | CuTy: 10% inhibition | –
CC(C)Cn1c(CN(C)C)nc2c(O)c(Cl)cc(Cl)c2c1=O.Cl [PB 1271] | 170 nM | – | – | – | – | – | – | – | – | – | 104.4% | 61.5% | CuTy: 50% inhibition | –
Oc1c(Cl)cc(Cl)c2ccc(-c3ccccn3)nc12 [PB 1052] | 640 nM | – | 55% | 31% | 62.8% | 3300 nM | – | Decrease insol, Decrease sol, Decrease plaque | Decrease insol, Decrease sol, Decrease plaque | Decrease insol, Decrease sol, Decrease plaque | – | – | – | 212%
O=c1c2ccc(I)c(O)c2ncn1Cc1ccccn1 [PB 1122] | 520 nM | Up to 1538 ng/ mL ng/mL | – | – | 62.4% | 660 nM | 10 days, none | – | – | – | 97.5% | 79.5% | – | –
CCc1c(O)c(=O)ccn1CC.Cl [PB 1270] | > 10000 nM | – | – | – | – | – | – | – | – | – | – | – | CuTy: 80% inhibition | –
O=C1NC(=O)c2cc(-n3cnc4c(O)c(Cl)cc(Cl)c4c3=O)ccc21 [PB 1247] | 560 nM | – | – | – | – | – | 10 days, none | – | – | – | 101.2% | 110.8% | CuTy: 150% inhibition | –
Br.CN(C)Cc1nc2c(O)c(Cl)cc(Cl)c2c(=O)[nH]1 [PB 1147] | – | Up tp 642.6 ng/ mL ng/mL | – | – | 12.5% | > 20000 nM | 10 days, none | – | – | – | 94.7% | 100.3% | CuTy: 100% inhibition | –
